In paper PMC5000727, “Molecular Insights into the Potential Toxicological Interaction of 2-Mercaptothiazoline with the Antioxidant Enzyme—Catalase” (International Journal of Molecular Sciences, 2016):

Molecular target: T1, catalase (CAT), from bovine liver (Bos taurus, UniProt P00432)
T1 construct: native enzyme from bovine liver, commercial (Sigma), EC 1.11.1.6; homotetramer; PDB 1TGU printed only as docking model
T1 sequence (P00432 2-527): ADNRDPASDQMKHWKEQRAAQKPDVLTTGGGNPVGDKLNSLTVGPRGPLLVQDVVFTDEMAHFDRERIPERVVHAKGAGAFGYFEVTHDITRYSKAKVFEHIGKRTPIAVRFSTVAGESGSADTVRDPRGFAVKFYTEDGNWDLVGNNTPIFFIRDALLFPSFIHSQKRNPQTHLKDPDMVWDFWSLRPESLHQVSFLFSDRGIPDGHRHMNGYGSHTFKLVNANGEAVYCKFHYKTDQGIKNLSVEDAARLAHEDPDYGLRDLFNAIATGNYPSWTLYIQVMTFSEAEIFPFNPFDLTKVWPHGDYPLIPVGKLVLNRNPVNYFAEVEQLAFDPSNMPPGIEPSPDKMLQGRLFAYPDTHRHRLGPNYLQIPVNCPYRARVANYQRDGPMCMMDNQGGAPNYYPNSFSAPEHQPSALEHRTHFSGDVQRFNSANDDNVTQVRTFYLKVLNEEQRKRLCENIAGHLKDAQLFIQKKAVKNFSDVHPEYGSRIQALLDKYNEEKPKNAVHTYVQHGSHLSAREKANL
Assay: intrinsic fluorescence quenching (ex […] nm)
Type: binding
Conditions: double-log; pH 7.4, 291 K, phosphate buffer; n = 1.14; unit printed mol·L^−1 but must be L·mol^−1 (printed ΔG° agrees); also measured at 300, 309, 318 K

Ka (× 10^4 mol.L^-1): 2.97 × 10^4 mol·L^−1
Structure (SMILES): S=C1NCCS1 [2-mercaptothiazoline, 1,3-thiazolidine-2-thione]
